# Reference: ChEMBL document CHEMBL4304779, “Treatment of Cancers by Inhibition of Isoprenylcysteine Carboxyl Methyltransferase” (ACS Med Chem Lett, 2019)
# Target: Protein-S-isoprenylcysteine O-methyltransferase (Homo sapiens, UniProt O60725)
# Assay: Inhibition of recombinant human ICMT expressed in baculovirus infected Sf9 insect cells using SAM as substrate preincubated for 30 mins followed by substrate addition and measured after 90 mins by MTase-Glo assay
# Sequence of Protein-S-isoprenylcysteine O-methyltransferase (O60725 whole entry): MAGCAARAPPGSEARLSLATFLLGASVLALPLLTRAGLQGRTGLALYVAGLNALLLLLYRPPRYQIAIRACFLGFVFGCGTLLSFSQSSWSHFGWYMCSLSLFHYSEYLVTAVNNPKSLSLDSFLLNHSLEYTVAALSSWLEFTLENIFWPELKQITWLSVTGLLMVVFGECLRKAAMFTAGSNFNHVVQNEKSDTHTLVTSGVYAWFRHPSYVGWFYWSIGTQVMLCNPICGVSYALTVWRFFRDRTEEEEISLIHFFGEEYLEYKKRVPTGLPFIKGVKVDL
row,Structure (SMILES),IC50 [nM]
1,Cc1cc(C#N)ccc1O[C@@H](C)COc1cccc(-c2ccnn2C)c1,1.6
2,COc1cc(C#N)ccc1O[C@@H](C)COc1cccc(-n2ccnc2C)c1,0.08
